Reference: article PMC7177849, “Gut Microbial Catabolites of Tryptophan Are Ligands and Agonists of the Aryl Hydrocarbon Receptor: A Detailed Characterization” (International Journal of Molecular Sciences, 2020)
Read-outs that look alike come from different tables or passages of the source.

What was measured:
CYP1A1 mRNA [1] = assay: CYP1A1 mRNA (qRT-PCR) in intestinal LS180 cells; assay type: cell-based, human; settings: LS180 cells co-incubated with TCDD (10 nM), 24 h
Experimental: (§1) Figure 4 Effects of MICT on the induction of CYP1A1 mRNA in human hepatic and intestinal cells. Cultured cells were incubated for 24 h with the vehicle (DMSO; 0.1% v/v) and tested MICT in the presence or absence of TCDD (10 nM). RT-PCR determined the level of CYP1A1 mRNA, and the data were normalized per GAPDH mRNA level. […] (A,B) Experiments in three consecutive passages of human colon adenocarcinoma cell line LS180 in the absence (A) and the presence (B) of 10 nM TCDD. The bar graphs show the percentage of maximal induction attained by TCDD and are expressed as the mean ± SD. (C) Experiments in three consecutive passages of wild-type (AhR^+/^+) and AhR-knockout (AhR^−/^−) HT-29 cells. […] (D) Primary human hepatocytes from three different donors (LH79, Hep2201020, and Hep2201021).
(§2) Total RNA was isolated using TRI Reagent® (Sigma Aldrich, Prague, Czech Republic). cDNA was synthesized using M-MuLV reverse transcriptase (New England Biolabs, Ipswich, MA, USA). The reverse transcription was performed at 42 °C for 60 min using Random Primers 6 (New England Biolabs, Ipswich, MA, USA) and diluted in a 1:4 ratio by PCR-grade water. The quantitative reverse transcriptase-polymerase chain reaction (qRT-PCR) was performed on the Lightcycler 480 II using the LightCycler ® 480 Probes Master (Roche Diagnostic Corporation, Prague, Czech Republic). The levels of CYP1A1 and GAPDH mRNAs were determined using the Universal Probe Library probes (UPL; Roche Diagnostic Corporation, Prague, Czech Republic) in combination with specific primers, using a protocol described elsewhere. All measurements were performed in triplicates, and the gene expression was normalized to glyceraldehyde-3-phosphate dehydrogenase (GAPDH) as a house-keeping gene. The data were processed using the delta-delta Ct method and expressed as a fold induction over the negative control (DMSO) or as a percentage of the positive control (maximal induction by TCDD).

CYP1A1 mRNA [2] = assay: Summary of CYP1A1 gene expression in human hepatic and intestinal cells; assay type: cell-based; settings: for induction of CYP1A1 mRNA: 200 µM, LS180 cells, HT-29 cells, and primary human hepatocytes; for Gene Expression: Table 1 summary class, CYP1A1
Experimental: as §1, §2

AhR [3] = system: AhR; design: method as in PMID 27158904; settings: IAA approx. 5000 µM; cited from earlier work
CYP1A1 mRNA [4] = system: CYP1A1 mRNA; design: method as in PMID 24563545; settings: 100 µM IAA, cited from earlier work
mouse AhR = system: mouse AhR; design: method as in PMID 9708986; settings: cited from earlier work
guinea pig AhR = system: guinea pig AhR; design: method as in PMID 9708986; settings: cited from earlier work
AhR [5] = target: T1, AhR (Homo sapiens, UniProt P35869); assay: Reporter gene assay in AZ-AHR cells, agonist analyses (luciferase)
T1 sequence (P35869 11-848): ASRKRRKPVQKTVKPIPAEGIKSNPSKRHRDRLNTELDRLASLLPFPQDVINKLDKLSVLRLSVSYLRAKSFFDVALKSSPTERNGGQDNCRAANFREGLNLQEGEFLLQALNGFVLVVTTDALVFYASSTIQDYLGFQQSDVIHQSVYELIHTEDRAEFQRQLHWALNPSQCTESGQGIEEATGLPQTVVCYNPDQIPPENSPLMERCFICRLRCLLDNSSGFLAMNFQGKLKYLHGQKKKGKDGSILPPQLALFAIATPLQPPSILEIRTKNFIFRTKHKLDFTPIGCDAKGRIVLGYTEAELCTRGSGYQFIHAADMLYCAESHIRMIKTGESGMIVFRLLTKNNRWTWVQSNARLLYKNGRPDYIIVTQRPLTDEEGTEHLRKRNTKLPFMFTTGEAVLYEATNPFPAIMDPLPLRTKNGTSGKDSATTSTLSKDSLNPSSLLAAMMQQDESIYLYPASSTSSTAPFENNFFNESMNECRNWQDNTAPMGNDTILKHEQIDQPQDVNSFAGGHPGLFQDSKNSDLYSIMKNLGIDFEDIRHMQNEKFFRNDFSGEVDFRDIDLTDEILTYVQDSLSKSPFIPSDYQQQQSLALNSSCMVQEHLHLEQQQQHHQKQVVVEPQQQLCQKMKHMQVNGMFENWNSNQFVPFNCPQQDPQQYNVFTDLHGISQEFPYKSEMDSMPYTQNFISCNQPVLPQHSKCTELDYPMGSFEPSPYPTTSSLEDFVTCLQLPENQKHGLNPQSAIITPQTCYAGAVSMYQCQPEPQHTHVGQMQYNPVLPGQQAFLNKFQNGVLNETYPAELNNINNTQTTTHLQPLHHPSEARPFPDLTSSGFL
Experimental: (§3) In the first series of experiments, we evaluated the agonistic and antagonistic effects of MICT on the AhR activation. […] The antagonistic effects of MICT were evaluated against typical full agonists of the AhR, comprising TCDD, BaP, and FICZ, which were applied at fixed concentrations corresponding to their EC80.
(§4) Following the treatments, we lysed cells, and luciferase activity was measured. Experiments were performed at least in four consecutive cell passages. Incubations were performed in quadruplicates (technical replicates). In agonist analyses, the data from a representative experiment, expressed as a fold induction of luciferase activity over control cells, are shown. In antagonist analyses, the data are a percentage of maximal induction, and they are the mean ± SD.
(§5) Then, cells were lysed, and luciferase activity was measured using the Tecan Infinite M200 plate luminometer (Schoeller Instruments, Czech Republic). The experiments were performed in at least four consecutive cell passages, and the treatments were in quadruplicates (technical replicates). The values of half-maximal effective concentration (EC50) for each MICT, and half-maximal inhibitory concentration (IC50—where appropriate) were calculated.
Supplementary Figure 2. Tryptophan effects in culture medium on AhR activity. (A) Time-course of Trp
levels in culture media from hepatic (AZ-AHR), instestinal (LS174T) and skin (HaCaT) cells. Determined by
HPLC. (B) Induction of AhR-dependent luciferase activity in AZ-AHR cells incubated for 24 h with TCDD,
Indole and Trp in Trp/serum-free culture medium. (C) Induction of AhR-dependent luciferase activity in
AZ-AHR cells incubated for 24 h with TCDD and Indole in standard (+Trp/+FBS), serum-free (+Trp/-FBS),
Trp-free (-Trp/+FBS) and Trp/serum-free (-Trp/-FBS) culture medium. […]

AhR [6] = target: T1, AhR; assay: Reporter gene assay in AZ-AHR cells, antagonist analyses against TCDD, BaP, FICZ
Experimental: as §3
as §4, with “AZ-AHR cells were incubated for 24 h with vehicle (DMSO; 0.1% v/v) and increasing concentrations of MICT, in the absence (agonist analyses) or the presence (antagonist analyses) of TCDD (13.5 nM), BaP (15.8 µM) and FICZ (22.6 µM). Following” for “Following”
as §5, with “AZ-AHR cells were incubated for 24 h with vehicle (DMSO; 0.1% v/v) and increasing concentrations of tested MICT in the presence or absence of TCDD (13.5 nM), FICZ (22.6 µM), or BaP (15.8 µM). Then,” for “Then,”

AhR [7] = system: AhR; design: method as in PMID 26235394; settings: 10 µM IPA, HepG2 cells; cited from earlier work
murine AhR = target: T2, murine AhR (Mus musculus, UniProt P30561); assay: Competitive radio-ligand ([3H]-TCDD) AhR binding assay, cytosols from Hepa1c1c7 cells; settings: data not shown
T2 sequence (P30561 10-805): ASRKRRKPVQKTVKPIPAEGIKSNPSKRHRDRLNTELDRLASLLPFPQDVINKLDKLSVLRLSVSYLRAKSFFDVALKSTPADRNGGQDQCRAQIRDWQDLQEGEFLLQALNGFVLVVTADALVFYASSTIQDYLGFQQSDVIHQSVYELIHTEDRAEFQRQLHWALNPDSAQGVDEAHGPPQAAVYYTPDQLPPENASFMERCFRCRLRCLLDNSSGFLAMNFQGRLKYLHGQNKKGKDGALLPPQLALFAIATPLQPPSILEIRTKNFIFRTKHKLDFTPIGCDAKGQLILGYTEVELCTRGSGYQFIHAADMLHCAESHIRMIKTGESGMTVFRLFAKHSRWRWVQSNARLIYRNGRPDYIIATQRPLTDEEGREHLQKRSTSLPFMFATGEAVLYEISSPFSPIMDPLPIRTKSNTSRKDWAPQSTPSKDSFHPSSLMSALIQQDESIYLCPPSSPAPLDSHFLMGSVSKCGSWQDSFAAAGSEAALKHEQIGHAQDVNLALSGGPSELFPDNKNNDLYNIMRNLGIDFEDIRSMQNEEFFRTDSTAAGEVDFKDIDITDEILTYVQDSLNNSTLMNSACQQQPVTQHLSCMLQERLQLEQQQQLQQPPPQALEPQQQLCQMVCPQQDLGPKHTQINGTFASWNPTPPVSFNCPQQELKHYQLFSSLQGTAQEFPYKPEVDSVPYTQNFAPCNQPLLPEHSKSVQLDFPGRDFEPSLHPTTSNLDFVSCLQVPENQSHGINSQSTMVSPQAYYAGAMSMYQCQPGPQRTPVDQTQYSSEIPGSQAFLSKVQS
Experimental: Figure 2 Competitive radio-ligand binding assay. Cytosols from Hepa1c1c7 cells were incubated with vehicle (negative control; 0.1% V/V), FICZ (positive control; 0.01 nM – 10 nM), TCDF (non-specific binding; 200 nM) and increasing doses of MICT in the presence of 2 nM [^3H]-TCDD. The specific binding of [^3H]-TCDD was determined as a difference between total and non-specific (200 nM; TCDF) reactions (value for vehicle DMSO; 0.1% V/V = corresponds to specific binding of [^3H]-TCDD = 100%). At least two independent experiments were performed and the incubations were done in triplicates in each experiment (technical replicates).
Ligand binding assay was performed using cytosolic protein extracts from murine Hepa1c1c7 cells as described. Briefly, aliquots of protein (2 mg/mL) were incubated at the room temperature for two (2) h with 2 nM [^3H]-TCDD in the presence of DMSO (vehicle control), FICZ (positive control), 200 nM TCDF (non-specific binding) or increasing concentration of MICT. After the incubation, the hydroxyapatite slurry was added to the samples and the suspension was incubated on ice and washed three times with HEGT buffer. The hydroxyapatite pellet was re-suspended in scintillation cocktail, and radioactivity was determined in a liquid scintillation counter. The specific binding of [^3H]-TCDD was determined by subtracting the radioactivity of non-specific reaction (TCDF) from total radioactivity. The values of IC50 were calculated where appropriate.

antagonistic effects on CYP1A1 mRNA (CYP1A1 mRNA [1])	induction of CYP1A1 mRNA (CYP1A1 mRNA [2])	Gene Expression (CYP1A1 mRNA [2])	activation of AhR (AhR [5]; AZ-AHR cells, 200 µM)	fold induction of luciferase activity (efficacy) (AhR [5]; AZ-AHR cells, 24 h, up to 200 µM (IAC 100 µM, IND 10 mM), plateau not reached)	EC50 (AhR [5]; EC50, AZ-AHR cells, 24 h, agonist analyses)	Efficacy (EMAX) (AhR [5]; Table 1 summary class)	Potency (EC50) (AhR [5]; Table 1 summary class)	antagonistic effect against full agonists (AhR [6]; AZ-AHR cells, 24 h, TCDD, BaP and FICZ at EC80)	Antagonism (IC50) (AhR [6]; Table 1 summary class)	Compound	activation of the AhR (AhR [3])	induction of CYP1A1 mRNA (CYP1A1 mRNA [4]; Caco-2 and MDA-MB-231 cells)	induction of CYP1A1 mRNA (CYP1A1 mRNA [4]; MDA-MB-468 cells)	concentration at which activation of AhR was described (mouse AhR)	concentration at which activation of AhR was described (guinea pig AhR)	AhR activation (AhR [7])	activation of AhR (AhR [5])	displacement of 3H-TCDD from binding at the murine AhR (murine AhR)
to a lesser extent	no induction	inactive	–	–	–	–	–	–	–	O=C(O)Cc1c[nH]c2ccccc12 [IAA, indole-3-acetate]	15 fold	≈ 5 fold	not	2 mM	2 mM	–	–	–
to a lesser extent	no induction	inactive	negligible activation	≈ 8 fold	98.3 ± 5.72 µM	low	low	no antagonistic effects	none	O=C(O)CCc1c[nH]c2ccccc12 [IPA, indole-3-propionate]	–	–	–	–	–	no AhR activation	–	–
–	–	–	–	–	–	–	–	–	–	N[C@@H](Cc1c[nH]c2ccccc12)C(=O)O [Trp, tryptophan]	–	–	–	–	–	–	did not activate	did not displace
